Legend:
[1] = target: T1, Disintegrin and metalloproteinase domain-containing protein 17 (Homo sapiens, UniProt P78536); assay: Inhibition of TACE
[2] = target: Disintegrin and metalloproteinase domain-containing protein 17 (Sus scrofa, UniProt O77636); assay: Inhibition of pig TACE
[3] = Oral bioavailability in dog; type: ADME, organism-based, Canis lupus familiaris; conditions: in vivo
[4] = Half life in human; type: ADME, organism-based; conditions: in vivo
Mus musculus [5] = assay: Inhibition of LPS-induced TNFalpha production in po dosed mouse; type: functional
[6] = Inhibition of TNFalpha production in whole blood; type: functional, tissue-based
[7] = Oral bioavailability in rat; type: ADME, organism-based; conditions: in vivo
[8] = Selectivity for TACE over MMP2
[9] = Selectivity for TACE over MMP9
[10] = Selectivity for TACE over MMP1
Mus musculus [11] = assay: Inhibition of TNFalpha production in mouse at 50 mg/kg, po after 1 hr; type: functional
[12] = target: T1, Disintegrin and metalloproteinase domain-containing protein 17; assay: Inhibition of TACE by cell free assay
[13] = Half life in rat LPS model; type: ADME, organism-based; conditions: in vivo
THP-1 = assay: Inhibition of LPS-induced TNFalpha production in human THP1 cells; type: functional, cell-based
Collagenase 3 = Collagenase 3 (Homo sapiens, UniProt P45452); assay: Inhibition of MMP13
Interstitial collagenase = target: T2, Interstitial collagenase (Homo sapiens, UniProt P03956); assay: Inhibition of MMP1
T2 sequence (P03956 whole entry): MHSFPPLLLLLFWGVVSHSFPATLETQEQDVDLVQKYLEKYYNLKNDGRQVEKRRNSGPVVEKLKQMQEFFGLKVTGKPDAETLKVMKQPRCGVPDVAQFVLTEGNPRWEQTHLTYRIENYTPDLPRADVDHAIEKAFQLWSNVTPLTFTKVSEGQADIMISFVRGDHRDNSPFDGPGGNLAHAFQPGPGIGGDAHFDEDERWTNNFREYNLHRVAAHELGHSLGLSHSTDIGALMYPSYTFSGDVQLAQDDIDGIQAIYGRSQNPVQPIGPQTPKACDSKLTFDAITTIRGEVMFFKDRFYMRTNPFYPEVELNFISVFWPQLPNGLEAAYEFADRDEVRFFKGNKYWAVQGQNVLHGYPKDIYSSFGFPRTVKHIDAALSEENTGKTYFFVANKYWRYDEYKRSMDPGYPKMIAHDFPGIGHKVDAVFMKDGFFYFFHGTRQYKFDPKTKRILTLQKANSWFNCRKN

[14] = target: Matrix metalloproteinase-9 (Homo sapiens, UniProt P14780); assay: Inhibition of MMP9
[15] = target: 72 kDa type IV collagenase (Homo sapiens, UniProt P08253); assay: Inhibition of MMP2
[16] = Fraction unbound in human serum; type: ADME, cell-free
Blood = assay: Inhibition of TNFalpha production in human whole blood; type: functional, tissue-based
[17] = target: T1, Disintegrin and metalloproteinase domain-containing protein 17; assay: Inhibition of TACE in human PBMC
[18] = Bioavailability in rat; type: ADME, organism-based; conditions: in vivo
Mus musculus [19] = assay: Inhibition of TNFalpha production in mouse at 100 mg/kg, po after 1 hr; type: functional
Rattus norvegicus = assay: Inhibition of LPS-induced TNFalpha production in po dosed rat plasma; type: functional

T1 sequence (P78536 whole entry, the tested form may be a part): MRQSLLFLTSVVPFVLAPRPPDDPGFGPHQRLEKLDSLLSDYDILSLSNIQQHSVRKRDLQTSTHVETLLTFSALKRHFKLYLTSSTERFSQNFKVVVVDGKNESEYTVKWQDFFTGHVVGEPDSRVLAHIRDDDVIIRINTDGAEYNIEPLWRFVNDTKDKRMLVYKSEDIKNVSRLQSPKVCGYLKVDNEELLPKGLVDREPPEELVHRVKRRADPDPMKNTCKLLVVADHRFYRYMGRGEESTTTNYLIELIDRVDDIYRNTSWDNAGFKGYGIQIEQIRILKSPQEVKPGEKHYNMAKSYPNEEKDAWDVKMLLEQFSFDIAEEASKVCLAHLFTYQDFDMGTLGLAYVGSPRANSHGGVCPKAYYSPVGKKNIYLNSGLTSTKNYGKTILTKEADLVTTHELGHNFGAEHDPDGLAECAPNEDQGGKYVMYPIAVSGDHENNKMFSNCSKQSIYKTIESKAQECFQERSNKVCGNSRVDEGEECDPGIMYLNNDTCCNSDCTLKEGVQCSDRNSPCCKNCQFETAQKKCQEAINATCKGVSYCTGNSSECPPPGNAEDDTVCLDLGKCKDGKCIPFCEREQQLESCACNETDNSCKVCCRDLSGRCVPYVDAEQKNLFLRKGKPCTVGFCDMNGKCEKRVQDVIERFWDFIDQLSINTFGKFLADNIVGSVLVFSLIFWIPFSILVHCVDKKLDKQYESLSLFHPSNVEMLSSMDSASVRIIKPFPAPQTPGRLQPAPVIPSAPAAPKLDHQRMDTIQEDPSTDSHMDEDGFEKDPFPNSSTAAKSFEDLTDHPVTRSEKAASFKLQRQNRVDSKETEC
Chain of Disintegrin and metalloproteinase domain-containing protein 17 (Sus scrofa, UniProt O77636) (O77636 whole entry, the tested form may be a part): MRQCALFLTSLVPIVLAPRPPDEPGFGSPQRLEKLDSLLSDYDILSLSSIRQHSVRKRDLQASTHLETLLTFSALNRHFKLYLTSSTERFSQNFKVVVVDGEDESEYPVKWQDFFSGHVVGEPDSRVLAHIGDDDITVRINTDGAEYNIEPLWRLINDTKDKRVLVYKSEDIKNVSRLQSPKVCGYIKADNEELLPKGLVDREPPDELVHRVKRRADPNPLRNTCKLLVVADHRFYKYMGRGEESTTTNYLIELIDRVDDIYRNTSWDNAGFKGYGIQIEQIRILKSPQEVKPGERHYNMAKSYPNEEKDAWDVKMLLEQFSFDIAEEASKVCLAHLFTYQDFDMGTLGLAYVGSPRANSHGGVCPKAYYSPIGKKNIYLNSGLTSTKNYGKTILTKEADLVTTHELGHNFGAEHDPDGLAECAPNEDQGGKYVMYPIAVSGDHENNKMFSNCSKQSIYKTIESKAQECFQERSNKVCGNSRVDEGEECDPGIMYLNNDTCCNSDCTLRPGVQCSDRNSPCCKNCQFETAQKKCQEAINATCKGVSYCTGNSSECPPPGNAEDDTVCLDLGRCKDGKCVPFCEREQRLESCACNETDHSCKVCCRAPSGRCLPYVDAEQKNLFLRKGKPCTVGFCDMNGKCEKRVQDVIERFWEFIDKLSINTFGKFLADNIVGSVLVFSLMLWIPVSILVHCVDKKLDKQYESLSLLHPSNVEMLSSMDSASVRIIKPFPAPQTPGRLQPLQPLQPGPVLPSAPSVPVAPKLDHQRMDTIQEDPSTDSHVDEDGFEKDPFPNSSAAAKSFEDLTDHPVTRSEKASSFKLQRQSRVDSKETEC
Chain of Matrix metalloproteinase-9 (P14780 whole entry): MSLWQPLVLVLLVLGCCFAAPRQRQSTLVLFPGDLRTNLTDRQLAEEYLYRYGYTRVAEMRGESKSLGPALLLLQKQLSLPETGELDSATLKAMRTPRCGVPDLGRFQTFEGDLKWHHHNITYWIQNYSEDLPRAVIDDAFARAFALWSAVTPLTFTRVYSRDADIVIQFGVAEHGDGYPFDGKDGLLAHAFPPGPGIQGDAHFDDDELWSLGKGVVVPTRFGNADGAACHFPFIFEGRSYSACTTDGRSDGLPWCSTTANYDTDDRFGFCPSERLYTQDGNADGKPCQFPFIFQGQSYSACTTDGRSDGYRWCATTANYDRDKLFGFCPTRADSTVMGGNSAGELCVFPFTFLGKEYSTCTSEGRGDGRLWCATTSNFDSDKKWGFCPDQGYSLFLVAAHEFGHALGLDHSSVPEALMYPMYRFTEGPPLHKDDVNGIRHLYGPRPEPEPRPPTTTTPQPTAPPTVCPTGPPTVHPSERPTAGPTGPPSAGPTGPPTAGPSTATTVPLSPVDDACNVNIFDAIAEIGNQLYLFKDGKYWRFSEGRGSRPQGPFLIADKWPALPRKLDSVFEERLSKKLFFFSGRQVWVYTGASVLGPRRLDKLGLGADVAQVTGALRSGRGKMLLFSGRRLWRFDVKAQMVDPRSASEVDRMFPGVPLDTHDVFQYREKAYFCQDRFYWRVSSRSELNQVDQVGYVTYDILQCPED
Chain of 72 kDa type IV collagenase (P08253 whole entry): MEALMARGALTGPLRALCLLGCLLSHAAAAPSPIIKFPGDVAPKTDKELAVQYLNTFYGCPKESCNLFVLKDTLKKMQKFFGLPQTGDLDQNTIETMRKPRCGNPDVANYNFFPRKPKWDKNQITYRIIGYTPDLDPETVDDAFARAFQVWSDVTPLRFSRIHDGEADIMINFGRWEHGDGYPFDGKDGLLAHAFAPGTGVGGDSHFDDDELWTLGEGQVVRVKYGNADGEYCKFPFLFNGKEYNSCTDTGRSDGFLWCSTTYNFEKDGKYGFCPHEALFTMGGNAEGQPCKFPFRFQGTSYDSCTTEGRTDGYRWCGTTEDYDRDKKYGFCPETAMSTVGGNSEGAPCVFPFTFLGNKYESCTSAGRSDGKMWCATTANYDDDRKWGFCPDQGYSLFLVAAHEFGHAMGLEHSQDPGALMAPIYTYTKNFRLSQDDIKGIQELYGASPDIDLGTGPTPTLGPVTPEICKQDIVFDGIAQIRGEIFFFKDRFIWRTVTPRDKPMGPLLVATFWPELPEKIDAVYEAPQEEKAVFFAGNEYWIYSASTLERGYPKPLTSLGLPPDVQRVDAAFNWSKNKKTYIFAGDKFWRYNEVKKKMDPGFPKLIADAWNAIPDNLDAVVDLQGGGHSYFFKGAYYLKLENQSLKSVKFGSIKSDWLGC

Cc1cc(COc2ccc(C3(C)C(=O)NC(=O)NC3=O)cc2)c2ccccc2n1
IC50 [1]: 1 nM

COc1cc(COc2ccc3c(c2)NCCN(C(CCCCNS(C)(=O)=O)C(=O)NO)S3(=O)=O)cc(OC)c1 (stereo unspecified)
Ki [2]: 5 nM

Cc1cc(COc2ccc([C@]3(N)CCN([C@H](CC(C)C)C(=O)NO)C3=O)cc2)c2ccccc2n1
bioavailability [3]: 54% | half-life [4]: 3 h | ED50 (Mus musculus [5]): 6 mg/kg | IC50 [6]: 90 nM | bioavailability [7]: 16% | IC50 [1]: 0.2 nM

Cc1cc(COc2ccc(N3CCC([C@H](NC(=O)OC(C)(C)C)C(=O)NO)C3=O)cc2)c2ccccc2n1 (stereo partly specified)
Selectivity ratio [8]: 300 | Selectivity ratio [9]: 300 | Selectivity ratio [10]: 700

Cc1cc(COc2ccc(N3C(C(=O)NO)CCCS3(=O)=O)cc2)c2ccccc2n1 (stereo unspecified)
Selectivity ratio [8]: > 1000 | Selectivity ratio [9]: > 1000 | Selectivity ratio [10]: > 1000

Cc1cc(COc2ccc(S(=O)(=O)CC3C(C(=O)NO)CCN3C)cc2)c2ccccc2n1 (stereo unspecified)
Selectivity ratio [8]: 2000 | Selectivity ratio [9]: 2000 | Selectivity ratio [10]: 2000 | IC50 [6]: 180 nM | IC50 [1]: 1 nM

CC#CCOc1ccc(S(=O)(=O)N(C)c2c(N3CCN(C)CC3)ccc(Br)c2C(=O)NO)cc1
Selectivity ratio [10]: 500 | inhibition in vivo at 50 mg/kg (Mus musculus [11]): 100% | IC50 [1]: 25 nM

CC[C@H](C)[C@H](NC(=O)[C@H](CC(C)C)[C@H](C(C)C)N(O)C=O)C(=O)Nc1ccccn1
IC50 [12]: 40 nM | half-life [13]: > 12 h

CNC(=O)[C@H](Cc1ccc(NC(=N)N)cc1)NC(=O)[C@H](CC(C)C)[C@H](CCCc1ccccc1)C(=O)NO
IC50 (THP-1): 130 nM | IC50 (Collagenase 3): 0.1 nM | IC50 (Interstitial collagenase): 6 nM

C/C=C/C=C/C=C1/C=C(CCC(=O)NO)C(=O)OC1
IC50 [14]: 23 nM | IC50 [15]: 6 nM | IC50 [1]: 28 nM

CC#CCOc1ccc(S(=O)(=O)N(C)c2c(C(=O)NO)cnc3c(OC)cccc23)cc1
Selectivity ratio [10]: 50

CC(C)C[C@@H](C(=O)NN(CC(C)C)S(C)(=O)=O)[C@H](C/C=C/c1ccccc1)C(=O)NO
IC50 [1]: 3 nM

C[C@H](C(=O)NO)N1CC[C@@](C)(c2ccc(OCc3ccccc3)cc2)C1=O
IC50 [1]: 4 nM

Cc1cc(OCc2ccc(NC(=O)[C@H]3CCCC[C@@H]3C(=O)NO)cc2)c2ccccc2n1
IC50 [6]: > 50000 nM | IC50 [1]: 8 nM

O=C(NO)[C@@H]1CC[C@H](O)CN1S(=O)(=O)c1ccc(OCc2ccccc2I)cc1
IC50 [1]: 110000 nM

CC1(C)SCCN(S(=O)(=O)c2ccc(OCC#CCO)cc2)[C@H]1C(=O)NO
IC50 [1]: 440 nM

CCC[C@@H]([C@@H](CC(C)C)C(=O)C[C@@H](CCCN/C(N)=N/[N+](=O)[O-])C(=O)Nc1nccs1)N(O)C=O
IC50 [12]: 4.3 nM

CC#CCOc1ccc(S(=O)(=O)CC2(C(=O)NO)CCN(S(=O)(=O)C(C)C)CC2)cc1
Selectivity ratio [8]: 230

C[C@H](C(=O)NO)N1CC[C@@](C)(c2ccc(Oc3ccccc3)cc2)C1=O
IC50 [1]: 185 nM

Cc1cc(COc2ccc(C(=O)NC3(C)C(=O)NC(=O)NC3=O)cc2)c2ccccc2n1
IC50 [1]: 0.026 nM

COc1ccc(S(=O)(=O)N(C)c2c(C)cc(Br)cc2C(=O)NO)cc1
IC50 (Collagenase 3): 11 nM

CC1(C)SCCN(S(=O)(=O)c2ccc(Oc3ccncc3)cc2)[C@H]1C(=O)NO [PRINOMASTAT]
IC50 [1]: 22 nM

Cc1cc(COc2ccc([C@]3(C)CCN([C@H](C)C(=O)NO)C3=O)cc2)c2ccccc2n1
fraction unbound [16]: 0.036 | IC50 [6]: 350 nM

CC(C)Cc1ccc([C@]2(C)CCN([C@H](C)C(=O)NO)C2=O)cc1
IC50 [1]: 1000 nM

CC#CCOc1ccc([S+]([O-])C(CCCCCC)C(=O)NO)cc1 (stereo unspecified)
IC50 [1]: 4 nM

C[C@H](C(=O)NO)N1CC[C@@](C)(c2ccc(-c3ccccc3)cc2)C1=O
IC50 [1]: 13000 nM

Cc1cc(COc2ccc(N3CC[C@](C)(CC(=O)NO)C3=O)cc2)c2ccccc2n1
IC50 (Blood): 1570 nM | IC50 [1]: 1 nM

CNC(=O)[C@@H](NC(=O)[C@H](c1ccc(OC)cc1)[C@H](CO)C(=O)NO)C(C)(C)C
IC50 [17]: 56 nM

Cc1cc(COc2ccc(C(=O)NCCC(=O)NO)cc2)c2ccccc2n1
IC50 [2]: 1 nM

CCOP(=O)(N[C@@H](CC(C)C)C(=O)NO)c1ccc(OC)cc1 (stereo partly specified)
IC50 [1]: 76 nM

CC#CCOc1ccc(S(=O)(=O)N2Cc3ccc(CO)cc3N(C(C)=O)CC2C(=O)NO)cc1 (stereo unspecified)
Selectivity ratio [10]: > 40

Cc1cc(COc2ccc(NC(=O)[C@@H]3[C@@H](C(=O)NO)CCCN3C)cc2)c2ccccc2n1
IC50 [6]: 20 nM | IC50 [1]: 6.2 nM

CNC(=O)[C@@H](NC(=O)[C@H](c1ccc(C)cc1)[C@H](CO)C(=O)NO)C(C)(C)C
IC50 [17]: 141 nM

Cc1cc(COc2ccc(C(=O)N[C@@H]3COCC[C@@H]3C(=O)NO)cc2)c2ccccc2n1
Selectivity ratio [8]: > 30000 | bioavailability [18]: 58% | Selectivity ratio [10]: > 30000 | IC50 [6]: 130 nM | IC50 [1]: < 1 nM

CC#CCOc1ccc(S(=O)(=O)N(C)c2c(C(=O)NO)cnc3onc(C)c23)cc1
inhibition in vivo at 100 mg/kg (Mus musculus [19]): 95%

C[C@H](C(=O)NO)N1CC[C@@](C)(c2ccc(OCc3cc(C(F)(F)F)cc(C(F)(F)F)c3)cc2)C1=O
Selectivity ratio [8]: > 1000 | Selectivity ratio [9]: > 1000 | Selectivity ratio [10]: > 1000 | IC50 [1]: 2 nM

C=CCONC(=O)[C@@H]1[C@@H](C)N(C(C)=O)CCN1S(=O)(=O)c1ccc(OCc2ccc(C)cc2)cc1
IC50 (Collagenase 3): 3 nM | IC50 (Interstitial collagenase): 1600 nM | IC50 [1]: 1 nM

CCC(=O)[C@@H](NC(=O)[C@H](c1ccc(OC)cc1)[C@H](CO)C(=O)NO)C(C)(C)C
ED50 (Rattus norvegicus): 1 mg/kg
